# Measured values from PMC10439230 (Scientific Reports, 2023).
# Tests used:
# [1] = test system: A549 (lung adenocarcinoma); test: Cytotoxic activity assay (MTT); format: cell-based, human
# In short: (§1)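 Viability after 48 h compound treatment is determined by MTT reduction, with dissolved purple formazan read at 550 nm against a 650 nm reference. Adherent cells are seeded at 5000–20,000 per well and grown 24 h at 37 °C beforehand.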
# [2] = test system: H69AR (multidrug-resistant small cell lung carcinoma); test: Cytotoxic activity assay (MTT); format: cell-based, human
# In short: as §1
# [3] = test system: HeLa (cervical carcinoma); test: Cytotoxic activity assay (MTT); format: cell-based, human
# In short: as §1
# [4] = test system: HepG2 (hepatocellular carcinoma); test: Cytotoxic activity assay (MTT); format: cell-based, human
# In short: as §1
# [5] = test system: HuCCA-1 (cholangiocarcinoma derived from a patient); test: Cytotoxic activity assay (MTT); format: cell-based, human
# In short: as §1
# [6] = test system: MDA-MB-231 (triple-negative breast cancer); test: Cytotoxic activity assay (MTT); format: cell-based, human
# In short: as §1
# [7] = test system: T-47D (hormone-dependent breast cancer); test: Cytotoxic activity assay (MTT); format: cell-based, human
# In short: as §1
# [8] = test system: HL-60 (acute promyelocytic leukemia); test: Cytotoxic activity assay (XTT); format: cell-based, human
# In short: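 Cytotoxicity against the suspended leukemia line HL-60 was measured with the XTT method, using doxorubicin and etoposide as positive controls. Cells (5000–20,000 per well, 75 µL) were allowed 30 min at 37 °C with 5% CO2 and were then treated with compound in an equal volume of medium for 48 h. After 4 h with 75 µL XTT reagent, plates were read at 492 nm with a 690 nm reference. MRC-5 normal lung fibroblasts served as the normal-cell comparison.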
# [9] = test system: MOLT-3 (T cell acute lymphoblastic leukemia); test: Cytotoxic activity assay (XTT); format: cell-based, human
# [10] = test system: MRC-5 normal embryonic lung fibroblast cell line; test: Cytotoxic activity assay (MTT), normal cells; format: cell-based; conditions: Homo sapiens, MRC5, 48 h exposure, read-out: Cell lines, IC50 (μM) MRC-5
# In short: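 Cells were plated at densities matched to growth rate (5000–20,000 per well) and allowed to attach for 24 h before compounds were added at predetermined concentrations. After 48 h of exposure, MTT was added for 2.5–4 h and formazan absorbance measured at 550 nm.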
# [11] = test system: MDA-MB-231 cells; test: Cell death analysis, annexin V/7-AAD double staining, flow cytometry; format: cell-based, human
# Method: (§2) Mode of cell death induced by compound 4l was explored using MDA-MB-231 cells by observing change in cell morphology and flow cytometric analysis of annexin V/7-AAD double stained cells. […] Accidental cell death necrosis is typically indicated by the immediate production of bubbles on the cell surface after treatment. […] Additionally, vacuole accumulation was not observed in the treated cells until 48 h after treatment (Fig. 3a). Taken together, we hypothesized that 4l-induced cell death in MDA-MB-231 cells was not processed through necrosis or vacuole-presenting regulated cell death such as autophagy.
# Briefly, MDA-MB-231 cells were seeded into 6-well culture plates at 1 × 10^6 cells/well and left in a CO2 incubator for 24 h. Subsequently, the cells were treated with tested compounds for 24–48 h. DMSO was used as a vehicle and its final concentration was kept at 0.2% (v/v) throughout the study. The treated cells were harvested by trypsinization and subjected to annexin V/7-AAD double staining using Muse® Annexin V & Dead Cell Kit as previously described. The stained cells were analyzed by flow cytometric technique using Muse® Cell Analyzer. Population of annexin V-positive cells was defined as early apoptotic cells, and the population positive for both annexin V and 7-AAD was defined as late apoptotic cells. The sequential events of increasing early and late apoptotic cell populations over time is a characteristic of apoptotic cell death.
# [12] = test system: phospho-FAK (Y397); test: Western blot analysis of FAK phosphorylation; format: cell-based, human; conditions: MDA-MB-231 cells, 25–50 µM, 24 h
# Method: (§3) We further investigated targets of compound 4l on cell survival signaling pathways including EGFR, FAK, Akt, and ERK in MDA-MB-231 cells. After treatment with 4l at concentrations of 25–50 µM for 24 h, activation (phosphorylation) of the signaling pathways was determined by using western blot analysis.
# (§4) MDA-MB-231 cells in 6-well culture plates (1 × 10^6 cells/well) were treated with tested compounds for 24 h. Then the cells were harvested and western blot analysis was used to detect alteration of targeted proteins in the treated cells, as previously described. Briefly, the cells in 6-well culture plates were scraped in RIPA cell lysis buffer supplemented with protease/phosphatase inhibitor cocktail before being lysed by sonication. Cell lysates were centrifuged at 12,000×g for 5 min, at 4 °C, to remove cell debris. Total proteins (20 μg) in the cell lysates were separated by SDS-PAGE and blotted to PVDF membranes. The membranes were blocked with 3% (w/v) BSA and incubated overnight at 4 °C with primary antibodies specific to the following proteins: EGFR, phospho-EGFR (Y845), FAK, phospho-FAK (Y397), Akt, phospho-Akt (S473), ERK, and phospho-ERK (T202/Y204). […] Bands of specific proteins were detected by using SuperSignal™ ECL substrates and visualized on X-ray films.
# [13] = test system: phospho-EGFR (Y845); test: Western blot analysis of EGFR phosphorylation; format: cell-based, human; conditions: MDA-MB-231 cells, 25–50 µM, 24 h
# Method: as §3, §4
# [14] = test system: phospho-Akt (S473); test: Western blot analysis of Akt phosphorylation; format: cell-based, human; conditions: MDA-MB-231 cells, 25–50 µM, 24 h
# Method: as §3, §4
# [15] = test system: phospho-ERK (T202/Y204); test: Western blot analysis of ERK phosphorylation; format: cell-based, human; conditions: MDA-MB-231 cells, 25–50 µM, 24 h
# Method: as §3, §4
# [16] = test system: MDA-MB-231 cells; test: Cell morphology of treated cells (microscopy); format: cell-based, human; conditions: MDA-MB-231, 25–50 µM
# Method: as §2
# [17] = SI = IC50 normal cell (MRC-5)/ IC50 cancer cell
smiles,measurement,setting,value
"C=C1CC[C@H]2C(C)(C)CCC[C@]2(C)[C@H]1CC/C(C)=C/C(=O)NOC1CCCCO1 (stereo partly drawn) [Compound 4l, (E)-3-Methyl-N-((tetrahydro-2H-pyran-2-yl)oxy)-5-((1S,4aS,8aS)-5,5,8a-trimethyl-2-methylenedecahydronaphthalen-1-yl)pent-2-enamide]",IC50,"[1]; Homo sapiens, A549, 48 h exposure, MTT, read-out: Cell lines, IC50 (μM) A549",57.7 ± 1.2 µM
same,Selectivity Index (SI) values A549,[1]; [17],0.7
same,IC50,"[2]; Homo sapiens, H69AR, 48 h exposure, MTT, read-out: Cell lines, IC50 (μM) H69AR",94.6 ± 1.67 µM
same,Selectivity Index (SI) values H69AR,[2]; [17],0.4
same,IC50,"[3]; Homo sapiens, 48 h exposure, MTT, read-out: Cell lines, IC50 (μM) HeLa",26.44 ± 0.04 µM
same,Selectivity Index (SI) values HeLa,[3]; [17],1.5
same,IC50,"[4]; Homo sapiens, HepG2, 48 h exposure, MTT, read-out: Cell lines, IC50 (μM) HepG2",73.5 ± 2.15 µM
same,Selectivity Index (SI) values HepG2,[4]; [17],0.5
same,IC50,"[5]; Homo sapiens, HuCC-A1, 48 h exposure, MTT, read-out: Cell lines, IC50 (μM) HuCCA-1",58.67 ± 0.13 µM
same,Selectivity Index (SI) values HuCCA-1,[5]; [17],0.7
same,IC50,"[6]; Homo sapiens, MDA-MB-231, 48 h exposure, MTT, read-out: Cell lines, IC50 (μM) MDA-MB-231",13.73 ± 0.04 µM
same,Selectivity Index (SI) values MDA-MB-231,[6]; [17],2.9
same,IC50,"[7]; Homo sapiens, T47D, 48 h exposure, MTT, read-out: Cell lines, IC50 (μM) T47-D",66.1 ± 6.39 µM
same,Selectivity Index (SI) values T47-D,[7]; [17],0.6
same,IC50,"[8]; Homo sapiens, HL-60, 48 h exposure, XTT, read-out: Cell lines, IC50 (μM) HL-60",21.4 ± 0.31 µM
same,Selectivity Index (SI) values HL-60,[8]; [17],1.9
same,IC50,"[9]; Homo sapiens, MOLT-3, 48 h exposure, XTT, read-out: Cell lines, IC50 (μM) MOLT-3",26.2 ± 1.76 µM
same,Selectivity Index (SI) values MOLT-3,[9]; [17],1.5
same,IC50,[10],40.3 ± 2.11 µM
same,late apoptotic cell population,"[11]; MDA-MB-231, 25–50 µM, 48 h, control 5.8%, mean of three experiments (Fig. 3c)",19.0–26.3%
same,mode of cell death,"[11]; MDA-MB-231 cells, 24–48 h treatment",non-apoptotic regulated cell death
same,phosphorylation of FAK protein,[12],selectively reduced
same,phosphorylation of EGFR,[13],not affected
same,phosphorylation of Akt,[14],not affected
same,phosphorylation of ERK,[15],not affected
same,necrosis (immediate formation of bubbles on cell surface),[16]; 24–48 h,did not induce necrosis
same,vacuole accumulation,[16]; until 48 h after treatment,not observed
